This is an account of results in patent US11254652B2, “Crystalline forms of N-(4-(4-(cyclopropymethyl)piperazine-1-carbonyl)phenyl)quinoline-8-sulfonamide” (Agios Pharmaceuticals, Inc., priority 2017, dated 2022).

In brackets after ≈: the same amount, converted by molar mass. Where a name gives a salt, the structure may show the parent alone. Read-outs that look alike come from different tables or passages of the source.

Data set [1] in a line: Solubility in water and simulated fluids at 37° C. (slurry, HPLC; XRPD of residual solid). It is filed as physicochemical. The following applies: values based on hemi-sulfate sesqui-hydrate salt, hemisulfate salt. As to the method: Solubility of Patterns A, B and D were measured in water. The solids were slurried in the fluids for two days and at 37° C. The supernatant was syringe filtered and used for HPLC analysis. For Patterns A and D the solubility measurement was repeated and the sample was taken after 1 hr slurry. A calibration curve was developed using Pattern A. This was not assay corrected and therefore the solubility values are based on the hemi-sulfate, sesqui-hydrate salt.
Both Patterns B and D converted to Pattern A after two days slurry. Pattern D also converted to Pattern A within 1 hour slurry in Fasted state simulated gastric fluid (FaSSGF) or water. […] This could be because of the conversion of Patterns B and D to Pattern A. The solubility data and the resulting XRPD Pattern after the measurement are reported in Table 21.

A short description of data set [2]: Dynamic Vapor Sorption (DVS). It counts as physicochemical. The following applies: hemisulfate salt; for moisture picked up in DVS: 2% to 95% relative humidity, temperature not stated; for XRPD after DVS: Form A: DVS at 25° C. and 40° C. The protocol: Dynamic Vapor Sorption (DVS) was done using a DVS Intrinsic 1. The sample is loaded into a sample pan and suspended from a microbalance. A typical sample mass for DVS measurement is 25 mg. Nitrogen gas bubbled through distilled water provides the desired relative humidity. A typical measurement comprises the steps: • 1. Equilibrate at 50% RH • 2. 50% to 2%. (50%, 40%, 30%, 20%, 10% and 2%) • a. Hold minimum of 5 mins and maximum of 60 minutes at each humidity. The pass criteria is less than 0.002% change • 3. 2% to 95% (2%, 10%, 20%, 30%, 40%, 50%, 60%, 70%, 80%, 90%, 95%) • b. Hold minimum of 5 mins and maximum of 60 minutes at each humidity. The pass criteria is less than 0.002% change • 4. 95% to 2% (95%, 80%, 70%, 60%, 50%, 40%, 30%, 20%, 10%, 2%) • c. Hold minimum of 5 mins and maximum of 60 minutes at each humidity. The pass criteria is less than 0.002% change • 5. 2% to 50% (2%, 10%, 20%, 30%, 40%, 50%) • d. Hold minimum of 5 mins and maximum of 60 minutes at each humidity. The pass criteria is less than 0.002% change
(§1) The water content by Karl Fisher was about 5.3%. […] A DVS isotherm taken at 40° C. was essentially the same as the one at 25° C. […] Humidity test was conducted on Form A with exposure to 11%, 48%, and 75% relative humidity at 40° C. for 2 weeks followed by XRPD analysis. […] Crystallographic data for Form A is as follows:
Form B tends to hold substantial amount of solvent.
(§2) Form D was determined to be anhydrous with a melting peak at 239° C. See e.g., FIG. 9. DVS of Pattern D was performed and solid picked up about 2% moisture from 2% to 95% relative humidity.

A short description of data set [3]: Humidity / desiccant exposure test followed by XRPD analysis. It counts as physicochemical. The following applies: one week exposure to 75% relative humidity at 40° C. The protocol:
FIG. 5 (i) depicts X-ray powder diffraction pattern (XRPD) overlay for crystalline hemisulfate salt Form A and after exposure to 11%, 48%, and 75% relative humidity and 40° C. for two weeks. […] FIG. 5 (ii) depicts XRPD overlay for crystalline hemisulfate salt Form A and after exposure to phosphorus pentoxide (P2O5) granules at room temperature and 50° C. for one week, as well as ambient temperature in a vial for 24 hrs.
as §1, §2

A short description of data set [4]: Pharmacokinetic evaluation after single PO suspension dose. It is filed as in vivo, Sprague-Dawley rat. The following applies: for AUC 0-last / Cmax: PO 200 mg/kg (free base equivalent), suspension in 0.5% methyl-cellulose, male Sprague-Dawley rats, n=6, plasma, 200 mg/kg; for AUC fold higher compared to crystalline free-base of Compound 1 / Cmax fold higher compared to crystalline free-base of Compound 1: PO suspension 200 mg/kg, fasted male Sprague-Dawley rats. The protocol:
Single dose in suspension using Crystalline Form A micronized and unmicronized, and crystalline free base of Compound 1 were administered to male Sprague-Dawley rat at 200 mg/kg. Blood samples were collected in the presence of K2EDTA, and were centrifuged to obtain plasma. The plasma was then analyzed for these compounds by LC/MS.
All animals involved in the dosing schedule were weighted and assigned numbers. All suspension formulations were freshly made prior use. Each solution was prepared at 40 mg/mL in 0.5% methyl-cellulose solution in water. The tubes were vortex for 2 min and sonicate for 30 min to achieve a white homogenous suspension.
All animals (n=6/group) were dosed orally in a volume of 5 mL/kg. Following dosing, each rat was bled at each of the designated time points. Blood samples were collected from the tail vain. Blood aliquots (150 μl) were collected in tubes coated with K2EDTA, mixed gently then kept on ice and centrifuged at 2,000 g for 5 minutes at 4° C., within 15 min of collection. The plasma layer was collected and maintained frozen at −70° C. until further processing.
Bioanalytical quantitation using HPLC/triple quadruple mass spectrometry (HPLC-MS) was performed. Plasma concentrations and T½ were calculated and reported.
A 1 mg/mL standard solution in DMSO:methanol (20:80, v/v) was diluted in 50 fold and subsequently serial diluted in 50% methanol water. Aliquots (10 μl) of the serial dilutions were mixed with 190 ul of control plasma for use as a standard curve. Plasma samples (50 μl) and standard samples (non-diluted) were diluted 10× with ice cold acetonitrile containing 40 ng/ml dexamethasone as internal standard. Acetonitrile precipitated samples and standards were vortexed at 5 g for 2 min (IKA vortex), then centrifuged at 5000 g for 10 min.
For 10-fold dilution standard samples: an aliquot of 5 μL sample was added with 45 μL control plasma to obtain the diluted samples. If a 50-fold dilution standard sample was required: an aliquot of 10 μL 10-fold diluted sample was added with 40 μL blank plasma to obtain the final diluted samples. Then, the exaction procedure for diluted samples was same as those for non-diluted samples.
Samples and standards (10 μl) were injected into the LC-MS system, as described below. Concentrations of dose solutions were reported in mg/mL.
LC: 7.5 μl of each sample and standard were injected onto a Waters BEH C18 (2.1×50 mm, 1.7 μm, maintained at 60° C.) column at 0.6 mL/min by an UPLC. The column was equilibrated at 10% acetonitrile. Compounds were eluted with a gradient to 95% acetonitrile. All mobile phase contained 0.025% (v/v) formic acid with 1 mM ammonium acetate.
MS: Column eluent was analyzed by electrospray ionization into a triple quadruple mass spectrometer system. Eluent composition was analyzed for ion pair specifics to the internal standard and the analyte respectively.
Experimental samples were compared with standard curve samples to determine compound concentrations. Average compound concentrations (in ng/mL±standard deviation) were reported for each time-point. […] PK analysis was performed in Phoenix Winnonlin; Cmax were determined as the maximum average concentration observed at a given point, the area under the curve (AUC) was reported for t0 to tlast ours.

Data set [5] in a line: Solubility measurements by gravimetric method in solvents at 23° C. and 50° C. It counts as physicochemical. The following applies: non-crystalline freebase; for solubility at 2 days: organic solvent or mixture, thermodynamic from solid, read-out: Solubility. The protocol: Solubility measurements were done by gravimetric method in 20 different solvents at two temperatures (23° C. and 50° C.). About 20-30 mg of Form A, the synthesis of which is described below, was weighed and 0.75 mL solvent was added to form a slurry. The slurry was then stirred for two days at the specified temperature. The vial was centrifuged and the supernatant was collected for solubility measurement through gravimetric method. The saturated supernatant was transferred into pre-weighed 2 mL HPLC vials and weighed again (vial+liquid). The uncapped vial was then left on a 50° C. hot plate to slowly evaporate the solvent overnight. The vials were then left in the oven at 50° C. and under vacuum to remove the residual solvent so that only the dissolved solid remained. The vial was then weighed (vial+solid). From these three weights; vial, vial+liquid and vial+solid; the weight of dissolved solid and the solvent were calculated. Then using solvent density the solubility was calculated as mg solid/mL of solvent.
20-30 mg of Form A was weighed into 2 mL vial and 500 μL MeOH solvent system as outlined in the table was added. If dissolved, more solids were added to form the slurry. The slurries were then stirred for two days. The vials were centrifuged and the supernatant was collected for solubility measurement through gravimetric method by evaporation at 50° C. XRPD analysis was conducted on the solid after filtration of the slurries.
For the sake of comparison, the solubility of Compound 1, i.e., the non-crystalline freebase, was also measured in two solvent systems to see the effect of water.

A short description of data set [6]: Solubility in phosphate buffer pH7.4. It counts as physicochemical.

Regarding `O=C(c1ccc(NS(=O)(=O)c2cccc3cccnc23)cc1)N1CCN(CC2CC2)CC1` [Form D, N-(4-(4-(cyclopropylmethyl)piperazine-1-carbonyl)phenyl)quinoline-8-sulfonamide hemisulfate salt], the Solubility in data set [1] (FaSSGF, slurry time 1 hr) is 5.43 mg Solid/mL solvent; in data set [1] (FaSSGF, slurry time 2 days, listed as D) it was 5.94 mg Solid/mL solvent; in data set [1] (FaSSIF, slurry time 2 days, listed as D), 3.49 mg Solid/mL solvent; in data set [1] (Water, slurry time 1 hr), 2.62 mg Solid/mL solvent; in data set [1] (Water, slurry time 2 days, listed as D), 2.71 mg Solid/mL solvent. The “moisture picked up in DVS” value in data set [2] (listed as Pattern D) was “about 2%”. Also, in data set [2] (listed as Pattern D), the “XRPD after DVS” value is listed as “remained unchanged”. In data set [3], the “form after humidity exposure” value was “did not change the form”.
What is called Cmax is the highest concentration seen after dosing. In the case of `O=C(c1ccc(NS(=O)(=O)c2cccc3cccnc23)cc1)N1CCN(CC2CC2)CC1` [Crystalline free-base of Compound 1, N-(4-(4-(cyclopropylmethyl)piperazine-1-carbonyl)phenyl)quinoline-8-sulfonamide], in data set [4], the AUC 0-last is 125 ± 85.8 µg·h/mL and the Cmax is listed as 17900 ± 3600 ng/mL.
For `O=C(c1ccc(NS(=O)(=O)c2cccc3cccnc23)cc1)N1CCN(CC2CC2)CC1` [Form B, N-(4-(4-(cyclopropylmethyl)piperazine-1-carbonyl)phenyl)quinoline-8-sulfonamide hemisulfate salt], the Solubility in data set [1] (FaSSGF, slurry time 2 days, listed as B) is reported as 6.53 mg Solid/mL solvent; in data set [1] (FaSSIF, slurry time 2 days, listed as B) it was 0.20 mg Solid/mL solvent; in data set [1] (Water, slurry time 2 days, listed as B) it was 3.02 mg Solid/mL solvent. For the same molecule, the “moisture picked up in DVS” value in data set [2] was “about 14%”. Besides, the “XRPD after DVS” value in data set [2] is reported as “converted to a different Form K”.
By solubility is commonly meant how much of the substance goes into solution per volume. In the case of `O=C(c1ccc(NS(=O)(=O)c2cccc3cccnc23)cc1)N1CCN(CC2CC2)CC1` [Compound 1, N-(4-(4-(cyclopropylmethyl)piperazine-1-carbonyl)phenyl)quinoline-8-sulfonamide], the solubility at 2 days in data set [5] (MeOAc:MeOH (1:1) and 2.5 vol % water, 23 °C, MeOAc:MeOH (1:1) and 2.5 vol % water, 23° C.) turned out to be 15 mg/mL (≈ 33.3 mM); in data set [5] (MeOAc:MeOH (1:1) and 2.5 vol % water, 50 °C, MeOAc:MeOH (1:1) and 2.5 vol % water, 50° C.) it was 36 mg/mL (≈ 79.9 mM); in data set [5] (MeOAc:MeOH (1:1), 23 °C, MeOAc:MeOH (1:1), 23° C.), 15 mg/mL (≈ 33.3 mM); in data set [5] (MeOAc:MeOH (1:1), 50 °C, MeOAc:MeOH (1:1), 50° C.) it was 34 mg/mL (≈ 75.5 mM). The “impact of 2.5 vol % water on solubility” value in data set [5] (MeOAc:MeOH (1:1)) is “did not have any impact”.
On to `O=C(c1ccc(NS(=O)(=O)c2cccc3cccnc23)cc1)N1CCN(CC2CC2)CC1` [Crystalline Form A (unmicronized), 1-(cyclopropylmethyl)-4-(4-(quinoline-8-sulfonamido)benzoyl)piperazin-1-ium hemisulfate sesquihydrate], for which, in data set [4] (hemisulfate sesquihydrate), the AUC 0-last worked out at 356 ± 82.9 µg·h/mL, the Cmax is listed as 29800 ± 5300 ng/mL, the “AUC fold higher compared to crystalline free-base of Compound 1” value amounted to 2.7 fold and the “Cmax fold higher compared to crystalline free-base of Compound 1” value worked out at 1.6 fold. Also, in data set [6], the “solubility compared to crystalline free-base of Compound 1” value is “more soluble”.
Taken in the same sequence, the figures for `O=C(c1ccc(NS(=O)(=O)c2cccc3cccnc23)cc1)N1CCN(CC2CC2)CC1` [Crystalline Form A (micronized), 1-(cyclopropylmethyl)-4-(4-(quinoline-8-sulfonamido)benzoyl)piperazin-1-ium hemisulfate sesquihydrate] were 478 ± 87.9 µg·h/mL, 36700 ± 6800 ng/mL, 3.8 fold, 2 fold and “more soluble”.
